Results from a compilation of properties of binary mixtures (doi:10.1021/je00020a016).

Test: excess molar enthalpy (molar enthalpy of mixing); xn = mol fraction of the nth substance listed
Conditions: 100 kPa

CCOC(=O)OCC + CC1COC(=O)O1
excess molar enthalpy [kcal/mol]
Conditions	298.15 K	313.15 K
x2 = 0.0482	–	0.0351
x2 = 0.0668	0.033	–
x2 = 0.0919	–	0.0559
x2 = 0.1066	0.0504	–
x2 = 0.1518	0.0631	–
x2 = 0.1528	–	0.0698
x2 = 0.1926	0.07	–
x2 = 0.1933	–	0.0755
x2 = 0.2623	0.0784	–
x2 = 0.2644	–	0.0846
x2 = 0.3231	0.0593	–
x2 = 0.4172	0.0605	–
x2 = 0.4183	–	0.0915
x2 = 0.4884	0.0822	–
x2 = 0.4895	–	0.0894
x2 = 0.5888	0.0765	–
x2 = 0.6824	0.066	–
x2 = 0.742	0.0583	0.0607
x2 = 0.8118	0.0452	–
x2 = 0.8519	0.0373	0.0387
x2 = 0.8962	0.0263	0.0284
x2 = 0.9452	0.0139	0.0151
x2 = 0.9718	0.00765	0.00789

CC1COC(=O)O1 (stereo not drawn) + COC(=O)OC
Conditions	excess molar enthalpy [kcal/mol]
298.15 K, x1 = 0.0474	0.0131
298.15 K, x1 = 0.0905	0.0203
298.15 K, x1 = 0.1106	0.0227
298.15 K, x1 = 0.1428	0.0253
298.15 K, x1 = 0.1993	0.0272
298.15 K, x1 = 0.2491	0.0272
298.15 K, x1 = 0.3989	0.0244
298.15 K, x1 = 0.4988	0.0217
298.15 K, x1 = 0.5989	0.0184
298.15 K, x1 = 0.6656	0.0158
298.15 K, x1 = 0.7491	0.0127
298.15 K, x1 = 0.7993	0.0103
298.15 K, x1 = 0.8566	0.00741
298.15 K, x1 = 0.8884	0.0055
298.15 K, x1 = 0.9228	0.00382
298.15 K, x1 = 0.9598	0.00191
313.15 K, x1 = 0.0658	0.0217
313.15 K, x1 = 0.1429	0.0284
313.15 K, x1 = 0.2001	0.0296
313.15 K, x1 = 0.2502	0.0294
313.15 K, x1 = 0.3335	0.0284
313.15 K, x1 = 0.4002	0.0268
313.15 K, x1 = 0.5002	0.0232
313.15 K, x1 = 0.6003	0.0191
313.15 K, x1 = 0.6669	0.0167
313.15 K, x1 = 0.7502	0.0129
313.15 K, x1 = 0.8001	0.0108
313.15 K, x1 = 0.8563	0.00813
313.15 K, x1 = 0.889	0.00598
313.15 K, x1 = 0.96	0.00215

CCOC(=O)OCC + COC(=O)OC
excess molar enthalpy [kcal/mol]
Conditions	298.15 K	313.15 K
x2 = 0.0565	0.00765	0.00645
x2 = 0.107	0.0148	–
x2 = 0.1522	–	0.0179
x2 = 0.1932	–	0.0213
x2 = 0.1934	0.0234	–
x2 = 0.2643	–	0.0272
x2 = 0.3241	0.0349	–
x2 = 0.4181	–	0.0368
x2 = 0.4892	–	0.0387
x2 = 0.5896	–	0.0387
x2 = 0.6831	–	0.0349
x2 = 0.6834	0.0373	–
x2 = 0.7418	–	0.0315
x2 = 0.7421	0.0335	–
x2 = 0.8117	–	0.0265
x2 = 0.8119	0.027	–
x2 = 0.8518	–	0.021
x2 = 0.8962	0.017	–
x2 = 0.8995	–	0.0158
x2 = 0.92	–	0.0124
x2 = 0.9201	0.0141	–
x2 = 0.9453	0.00932	–
x2 = 0.9718	–	0.00454
x2 = 0.9719	0.00478	–
